Measurements reported in ChEMBL document CHEMBL1156316, “Sterol effect on interaction between amphidinol 3 and liposomal membrane as evidenced by surface plasmon resonance” (Bioorg Med Chem Lett, 2010).

Key:
Lipid bilayer [1] = assay: Binding affinity to synthetic palmitoyl-oleoyl-phosphatidylcholine liposome assessed as association constant for compound- PPC liposome reorientation complex at 10 uM by surface plasmon resonance assay in presence of 5% cholesterol
Lipid bilayer [2] = assay: Binding affinity to synthetic palmitoyl-oleoyl-phosphatidylcholine liposome assessed as overall equilibrium association constant at 10 uM by surface plasmon resonance assay in presence of 5% cholesterol
Lipid bilayer [3] = assay: Binding affinity to synthetic palmitoyl-oleoyl-phosphatidylcholine liposome at 10 uM by surface plasmon resonance assay in presence of 5% cholesterol
Lipid bilayer [4] = assay: Binding affinity to synthetic palmitoyl-oleoyl-phosphatidylcholine liposome assessed as association constant for compound- PPC liposome reorientation complex at 10 uM by surface plasmon resonance assay
Lipid bilayer [5] = assay: Binding affinity to synthetic palmitoyl-oleoyl-phosphatidylcholine liposome assessed as association constant for compound- PPC liposome reorientation complex at 10 uM by surface plasmon resonance assay in presence of 5% ergosterol
Lipid bilayer [6] = assay: Binding affinity to synthetic palmitoyl-oleoyl-phosphatidylcholine liposome assessed as overall equilibrium association constant at 10 uM by surface plasmon resonance assay
Lipid bilayer [7] = assay: Binding affinity to synthetic palmitoyl-oleoyl-phosphatidylcholine liposome at 10 uM by surface plasmon resonance assay
Lipid bilayer [8] = assay: Binding affinity to synthetic palmitoyl-oleoyl-phosphatidylcholine liposome at 10 uM by surface plasmon resonance assay in presence of 5% ergosterol
Lipid bilayer [9] = assay: Binding affinity to synthetic palmitoyl-oleoyl-phosphatidylcholine liposome assessed as overall equilibrium association constant at 10 uM by surface plasmon resonance assay in presence of 5% ergosterol

C=C/C=C/CC/C=C/C=C/C=C/CC/C=C/[C@@H](O)[C@@H](O)C1O[C@@H]([C@H](O)[C@H](O)C(=C)CCC(O)[C@H]2C[C@@H](O)[C@@H](O)C([C@@H](O)[C@H](O)/C=C(\C)CC[C@H](O)C[C@H](O)[C@@H](O)[C@@H](C)C[C@H](O)[C@@H](O)CCCCCC(O)CCC[C@@H](O)/C=C/C[C@@H](O)/C=C/C[C@H](O)CO)O2)CC(O)C1O (some centres undefined)
KA (Lipid bilayer [1]): 3.92 10^3/M | KA (Lipid bilayer [2]): 721 10^3/M | KA (Lipid bilayer [3]): 180 10^3/M | KA (Lipid bilayer [4]): 0.93 10^3/M | KA (Lipid bilayer [5]): 28.6 10^3/M | KA (Lipid bilayer [6]): 0.764 10^3/M | KA (Lipid bilayer [7]): 0.901 10^3/M | KA (Lipid bilayer [8]): 143 10^3/M | KA (Lipid bilayer [9]): 3970 10^3/M
